Results: ChEMBL document CHEMBL1201862, “PubChem BioAssay data set” (2004)
The source made the active and inactive calls.

How the values were obtained:
[1] = target: Acyl-homoserine lactone acylase PvdQ (Pseudomonas aeruginosa (strain LESB58), UniProt Q9I194); test: P. aeruginosa PvdQ acylase inhibitors, dose response, biochemical, fluorescence, plate reader and imaging, cherry-picks (AID 493231)
[2] = target: T1, Zinc finger protein mex-5 (Caenorhabditis elegans, UniProt Q9XUB2); test: MEX-5/TCR-2 RNA interaction inhibitors, dose response, biochemical, C. elegans, fluorescence polarization (AID 1960)
T1 sequence (Q9XUB2 whole entry): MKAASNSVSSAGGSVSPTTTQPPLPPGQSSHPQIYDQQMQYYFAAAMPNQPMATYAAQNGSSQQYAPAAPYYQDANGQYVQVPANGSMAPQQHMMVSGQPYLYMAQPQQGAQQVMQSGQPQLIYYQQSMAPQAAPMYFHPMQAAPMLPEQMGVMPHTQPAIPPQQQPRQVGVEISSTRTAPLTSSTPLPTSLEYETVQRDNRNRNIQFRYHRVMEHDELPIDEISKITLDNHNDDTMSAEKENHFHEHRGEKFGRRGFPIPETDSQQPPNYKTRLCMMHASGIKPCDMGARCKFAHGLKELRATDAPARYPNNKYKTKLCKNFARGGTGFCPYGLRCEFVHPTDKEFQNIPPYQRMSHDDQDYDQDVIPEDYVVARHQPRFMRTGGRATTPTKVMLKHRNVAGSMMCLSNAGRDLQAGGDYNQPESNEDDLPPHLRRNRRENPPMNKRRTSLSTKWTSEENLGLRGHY

Protein Rev = Protein Rev (Human immunodeficiency virus type 1 group M subtype B (isolate HXB2)(HIV-1), UniProt P04618); test: inhibitors of Rev binding to RRE RNA, dose response, biochemical, fluorescence polarization, HIV-1 (AID 434976); parameters: species or system Human immunodeficiency virus 1
[3] = target: Female germline-specific tumor suppressor gld-1 (Caenorhabditis elegans, UniProt Q17339); test: inhibitors of GLD-1 binding to TGE RNA, dose response, biochemical, fluorescence polarization, C. elegans (AID 2802);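 note: fluorescence polarization of labeled TGE RNA bound by purified gld-1 protein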
[4] = target: T2, RNA-binding protein pos-1 (Caenorhabditis elegans, UniProt G5EF15); test: inhibitors of POS-1/mex-3 RNA binding, dose response, biochemical, fluorescence polarization (AID 1964);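 note: purified POS-1 fused to maltose binding protein made in E. coli; potency of compounds blocking POS-1 binding to fluorescent RNA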
T2 sequence (G5EF15 whole entry): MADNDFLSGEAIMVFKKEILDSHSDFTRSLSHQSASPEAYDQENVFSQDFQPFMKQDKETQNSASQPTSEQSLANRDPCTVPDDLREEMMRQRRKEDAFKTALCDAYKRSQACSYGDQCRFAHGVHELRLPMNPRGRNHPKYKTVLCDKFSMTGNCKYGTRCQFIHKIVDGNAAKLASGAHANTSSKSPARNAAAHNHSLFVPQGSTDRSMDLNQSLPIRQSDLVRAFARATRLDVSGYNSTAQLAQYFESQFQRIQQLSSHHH

[5] = target: T3, C-C chemokine receptor type 6 (Homo sapiens, UniProt P51684); test: CCR6 receptor antagonists, dose response, cell-based, luminescent beta-arrestin readout (AID 504728); type: functional
T3 sequence (P51684 whole entry): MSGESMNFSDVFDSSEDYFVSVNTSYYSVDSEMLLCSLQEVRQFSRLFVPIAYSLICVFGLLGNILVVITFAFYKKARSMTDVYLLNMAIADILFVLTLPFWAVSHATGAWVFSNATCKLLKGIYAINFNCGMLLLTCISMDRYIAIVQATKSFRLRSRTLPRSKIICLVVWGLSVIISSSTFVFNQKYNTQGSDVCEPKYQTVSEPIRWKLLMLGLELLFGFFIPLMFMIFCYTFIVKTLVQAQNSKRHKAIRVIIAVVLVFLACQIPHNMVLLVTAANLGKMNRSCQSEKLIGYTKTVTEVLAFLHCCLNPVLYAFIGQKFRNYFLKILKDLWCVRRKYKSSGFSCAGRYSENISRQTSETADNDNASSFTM

Beta-galactosidase = Beta-galactosidase (Escherichia coli, UniProt Q8VNN2); test: beta-galactosidase enzyme inhibitors and activators, dose response, artefact control for CCR6 antagonist project, biochemical, E. coli enzyme, set 3 (AID 504712); type: functional
Bcl-2-like protein 1 = Bcl-2-like protein 1 (Homo sapiens, UniProt Q07817); test: BCL-XL inhibitors, dose response, selectivity assay for MCL1 inhibitor project, biochemical, fluorescence polarization, 1536-well (AID 2218)
[6] = target: T4, Alkaline phosphatase, tissue-nonspecific isozyme (Homo sapiens, UniProt P05186); test: TNAP enzyme inhibition by screening hits, dose response, selectivity assay for mouse IAP inhibitor project, biochemical, human TNAP, uHTS hits (AID 488906); type: functional
T4 sequence (P05186 whole entry): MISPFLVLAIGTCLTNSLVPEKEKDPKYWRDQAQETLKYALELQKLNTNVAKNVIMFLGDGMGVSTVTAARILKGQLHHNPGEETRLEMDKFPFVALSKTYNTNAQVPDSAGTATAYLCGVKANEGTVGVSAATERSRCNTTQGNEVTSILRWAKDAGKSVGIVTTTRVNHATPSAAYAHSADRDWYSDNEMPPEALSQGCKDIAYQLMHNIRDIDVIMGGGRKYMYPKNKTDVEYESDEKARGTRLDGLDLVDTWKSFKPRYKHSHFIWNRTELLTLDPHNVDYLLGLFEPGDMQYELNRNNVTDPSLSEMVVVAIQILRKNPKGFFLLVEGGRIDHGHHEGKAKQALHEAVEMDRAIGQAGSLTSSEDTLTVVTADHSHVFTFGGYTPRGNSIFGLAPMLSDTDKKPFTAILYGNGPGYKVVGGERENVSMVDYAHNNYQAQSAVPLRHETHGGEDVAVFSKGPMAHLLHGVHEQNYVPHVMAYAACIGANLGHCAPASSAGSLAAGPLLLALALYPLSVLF

[7] = target: Induced myeloid leukemia cell differentiation protein Mcl-1 (Homo sapiens, UniProt Q07820); test: MCL1-BIM BH3 interaction inhibitors, dose response, biochemical, fluorescence polarization, BIM-BH3 peptide, 1536-well (AID 2217)
[8] = target: Intestinal-type alkaline phosphatase (Mus musculus, UniProt P24822); test: PubChem AID 488785; type: functional
[9] = target: 1-phosphatidylinositol 4,5-bisphosphate phosphodiesterase gamma-1 (Homo sapiens, UniProt P19174); test: Counterscreen for inhibitors of phospholipase C isozymes (PLC-B3): Fluorescence-based biochemical high throughput dose response assay to identify inhibitors of phospholipase C isozymes (PLC-gamma1).
[10] = target: T5, Histone-lysine N-methyltransferase NSD2 (Homo sapiens, UniProt O96028); type: biochemical
T5 sequence (O96028 whole entry): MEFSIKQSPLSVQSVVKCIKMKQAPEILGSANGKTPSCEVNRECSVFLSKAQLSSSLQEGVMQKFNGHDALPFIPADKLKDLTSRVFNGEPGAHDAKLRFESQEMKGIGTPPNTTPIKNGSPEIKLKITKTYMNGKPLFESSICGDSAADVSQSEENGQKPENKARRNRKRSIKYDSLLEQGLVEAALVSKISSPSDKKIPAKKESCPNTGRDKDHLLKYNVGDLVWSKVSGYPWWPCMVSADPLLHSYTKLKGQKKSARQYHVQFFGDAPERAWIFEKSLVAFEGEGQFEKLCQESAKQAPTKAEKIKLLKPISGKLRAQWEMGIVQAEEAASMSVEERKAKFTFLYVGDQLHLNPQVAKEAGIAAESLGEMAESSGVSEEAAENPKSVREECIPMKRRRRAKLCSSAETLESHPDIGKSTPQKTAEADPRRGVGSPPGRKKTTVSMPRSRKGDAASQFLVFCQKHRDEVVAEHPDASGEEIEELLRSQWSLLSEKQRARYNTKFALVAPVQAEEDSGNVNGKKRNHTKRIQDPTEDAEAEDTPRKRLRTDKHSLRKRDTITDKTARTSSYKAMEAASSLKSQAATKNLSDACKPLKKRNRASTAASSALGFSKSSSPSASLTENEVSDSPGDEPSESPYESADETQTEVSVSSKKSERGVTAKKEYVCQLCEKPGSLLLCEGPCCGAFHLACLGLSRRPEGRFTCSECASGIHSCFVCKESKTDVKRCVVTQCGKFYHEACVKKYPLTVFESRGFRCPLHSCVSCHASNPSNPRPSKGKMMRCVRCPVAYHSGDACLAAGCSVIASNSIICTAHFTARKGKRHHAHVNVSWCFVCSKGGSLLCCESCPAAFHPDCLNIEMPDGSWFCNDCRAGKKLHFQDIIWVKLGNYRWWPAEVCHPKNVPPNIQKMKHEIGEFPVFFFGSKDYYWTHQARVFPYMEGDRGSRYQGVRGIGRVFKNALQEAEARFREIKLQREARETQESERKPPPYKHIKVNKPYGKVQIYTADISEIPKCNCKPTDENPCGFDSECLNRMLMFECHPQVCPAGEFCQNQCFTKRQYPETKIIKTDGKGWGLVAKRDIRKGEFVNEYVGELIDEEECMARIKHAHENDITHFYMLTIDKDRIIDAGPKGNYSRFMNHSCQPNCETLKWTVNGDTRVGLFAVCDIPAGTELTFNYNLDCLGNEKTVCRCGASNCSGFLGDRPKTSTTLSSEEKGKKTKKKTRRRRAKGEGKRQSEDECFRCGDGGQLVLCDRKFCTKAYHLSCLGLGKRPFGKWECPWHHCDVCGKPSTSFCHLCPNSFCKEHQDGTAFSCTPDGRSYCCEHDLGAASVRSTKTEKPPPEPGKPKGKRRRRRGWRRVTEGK

HeLa = test: HeLa cell cytotoxicity, dose response, cytotoxicity control, 24 h, cherry-picked samples (AID 504726); type: functional, cell-based; conditions: Homo sapiens;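 note: potency for cytotoxicity as loss of luminescence signal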
ORF 73 = ORF 73 (Human herpesvirus 8, UniProt O40947); test: inhibitors of C-LANA binding to LBS DNA, dose response, biochemical, fluorescence polarization, cherry-picked samples (AID 504725); parameters: species or system Human gammaherpesvirus 8;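 note: fluorescence polarization of a labeled DNA duplex reporting LANA DNA binding; potency is for inhibitors that block LANA binding to the DNA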
[11] = target: 1-phosphatidylinositol 4,5-bisphosphate phosphodiesterase beta-3 (Homo sapiens, UniProt Q01970); test: Fluorescence-based biochemical high throughput dose response assay to identify inhibitors of phospholipase C isozymes (PLC-B3).
Large T antigen = Large T antigen (Simian virus 40, UniProt P03070); type: functional, Betapolyomavirus macacae;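 note: Confirmatory-stage PubChem screen for compounds that inhibit SV40 T antigen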
[12] = target: Intestinal-type alkaline phosphatase (Homo sapiens, UniProt P09923); test: inhibition of human intestinal alkaline phosphatase – biochemical, dose response (AID 488876); type: functional
Genome polyprotein = Genome polyprotein (dengue virus type 2, UniProt P29990); test: Dengue-2 NS5 methyltransferase inhibitors, primary screen, biochemical, confirmation dose response (AID 588689); type: functional
[13] = inhibitors of firefly luciferase expression or activity, dose response, H4 neuroglioma cells, luminescence (AID 1990); type: functional, cell-based
[14] = inhibitors of SNCA 5'UTR-driven reporter translation, confirmation, H4 neuroglioma cells, luminescence (AID 1988); type: functional, cell-based
[15] = Luminescence Cell-Based Dose Response HTS to Identify Inhibitors of 5'UTR Stem-Loop Driven Prion Protein mRNA Translation in H4 Neuroglioblastoma Cells. [Related pubchem assays: 1827 (Project Summary), 1813 (Primary HTS)]; type: functional
[16] = target: T6, Voltage-gated N-type calcium channel alpha-1B subunit/Amyloid beta A4 precursor protein-binding family A member 1 (Homo sapiens, UniProt Q00975+Q02410); test: disruptors of Mint-PDZ/N-type channel peptide interaction – biochemical, HTRF, SAR follow-up (AID 2489); type: functional
[17] = target: T6, Voltage-gated N-type calcium channel alpha-1B subunit/Amyloid beta A4 precursor protein-binding family A member 1; type: protein assay
[18] = target: T6, Voltage-gated N-type calcium channel alpha-1B subunit/Amyloid beta A4 precursor protein-binding family A member 1; type: protein assay; remark: listed apart in the source
Vero [19] = test: cytotoxicity of synthesized analogs in Vero cells, SAR follow-up, cytotoxicity control for West Nile virus antiviral project, cell-based, set II (AID 2402); type: functional; conditions: Chlorocebus sabaeus
[20] = A Cell Based Assay for the Identification of Probe candidate Compounds with Anti- Venezuelan Equine Encephalitis virus. [Related pubchem assays: 2409, 2419, 1621, 2238, 2405, 2024, 2065, 2402, 2414, 1635, 1650, 2244 ]; type: functional
Vero [21] = test: Vero E6 cell cytotoxicity, SAR follow-up, cytotoxicity control for West Nile virus antiviral project, synthesized analogs (AID 2244); type: functional; conditions: Chlorocebus sabaeus

T6 sequence (Q00975 whole entry): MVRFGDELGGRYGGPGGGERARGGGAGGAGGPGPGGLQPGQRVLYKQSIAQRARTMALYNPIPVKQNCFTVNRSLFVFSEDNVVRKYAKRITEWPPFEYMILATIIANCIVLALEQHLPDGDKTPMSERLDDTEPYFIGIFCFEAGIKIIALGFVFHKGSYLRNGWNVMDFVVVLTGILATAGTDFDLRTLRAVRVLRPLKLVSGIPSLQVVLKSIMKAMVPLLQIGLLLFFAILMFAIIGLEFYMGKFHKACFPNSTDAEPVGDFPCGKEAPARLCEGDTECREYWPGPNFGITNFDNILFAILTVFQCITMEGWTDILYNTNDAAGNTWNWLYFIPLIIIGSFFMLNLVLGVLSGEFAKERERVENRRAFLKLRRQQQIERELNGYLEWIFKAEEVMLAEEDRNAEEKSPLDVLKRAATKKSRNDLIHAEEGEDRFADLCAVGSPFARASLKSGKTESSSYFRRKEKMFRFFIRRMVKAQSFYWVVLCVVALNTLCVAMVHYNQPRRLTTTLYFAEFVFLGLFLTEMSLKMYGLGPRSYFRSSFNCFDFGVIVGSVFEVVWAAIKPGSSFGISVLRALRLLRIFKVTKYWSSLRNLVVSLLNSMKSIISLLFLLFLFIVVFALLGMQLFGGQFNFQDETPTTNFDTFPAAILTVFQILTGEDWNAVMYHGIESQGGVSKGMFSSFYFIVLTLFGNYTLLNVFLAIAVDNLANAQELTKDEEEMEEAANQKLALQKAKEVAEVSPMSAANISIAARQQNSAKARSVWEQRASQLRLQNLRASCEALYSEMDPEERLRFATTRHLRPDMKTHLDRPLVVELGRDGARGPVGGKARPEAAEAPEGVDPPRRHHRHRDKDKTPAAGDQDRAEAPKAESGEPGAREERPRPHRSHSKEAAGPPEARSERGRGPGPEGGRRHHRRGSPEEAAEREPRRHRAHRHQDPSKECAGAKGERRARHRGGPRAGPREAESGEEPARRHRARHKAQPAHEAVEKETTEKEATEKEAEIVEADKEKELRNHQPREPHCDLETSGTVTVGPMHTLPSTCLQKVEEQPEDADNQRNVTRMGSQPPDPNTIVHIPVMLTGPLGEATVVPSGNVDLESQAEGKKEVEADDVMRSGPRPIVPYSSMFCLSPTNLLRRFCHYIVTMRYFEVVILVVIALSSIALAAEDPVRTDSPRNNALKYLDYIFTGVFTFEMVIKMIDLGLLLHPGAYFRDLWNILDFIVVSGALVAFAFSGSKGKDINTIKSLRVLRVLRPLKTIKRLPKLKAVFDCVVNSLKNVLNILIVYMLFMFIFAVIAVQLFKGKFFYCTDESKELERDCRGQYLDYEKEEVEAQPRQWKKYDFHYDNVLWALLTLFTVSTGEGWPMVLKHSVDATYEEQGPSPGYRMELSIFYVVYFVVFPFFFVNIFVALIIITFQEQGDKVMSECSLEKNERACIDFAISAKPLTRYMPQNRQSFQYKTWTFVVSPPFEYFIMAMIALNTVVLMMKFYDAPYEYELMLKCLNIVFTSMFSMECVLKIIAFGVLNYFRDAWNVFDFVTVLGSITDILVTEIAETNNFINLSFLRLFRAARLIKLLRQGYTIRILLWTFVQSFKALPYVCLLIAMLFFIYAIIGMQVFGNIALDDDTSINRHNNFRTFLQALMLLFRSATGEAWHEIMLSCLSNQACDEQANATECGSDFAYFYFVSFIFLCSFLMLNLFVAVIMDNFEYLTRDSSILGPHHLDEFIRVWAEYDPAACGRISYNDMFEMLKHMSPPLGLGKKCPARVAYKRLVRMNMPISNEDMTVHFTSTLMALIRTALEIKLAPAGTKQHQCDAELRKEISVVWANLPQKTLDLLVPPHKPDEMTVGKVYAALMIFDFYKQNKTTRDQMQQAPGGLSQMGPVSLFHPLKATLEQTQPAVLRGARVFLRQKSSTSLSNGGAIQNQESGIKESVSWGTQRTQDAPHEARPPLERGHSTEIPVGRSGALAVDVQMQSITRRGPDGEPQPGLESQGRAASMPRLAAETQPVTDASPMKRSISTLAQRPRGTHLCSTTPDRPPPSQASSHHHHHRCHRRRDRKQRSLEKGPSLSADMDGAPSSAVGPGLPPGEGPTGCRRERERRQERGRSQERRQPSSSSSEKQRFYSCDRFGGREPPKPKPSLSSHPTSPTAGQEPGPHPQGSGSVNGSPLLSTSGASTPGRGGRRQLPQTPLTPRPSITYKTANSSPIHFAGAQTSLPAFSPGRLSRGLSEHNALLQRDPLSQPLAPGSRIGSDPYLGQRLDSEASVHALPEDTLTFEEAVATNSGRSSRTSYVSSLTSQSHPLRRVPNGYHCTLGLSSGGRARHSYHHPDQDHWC
T6 sequence (Q02410 whole entry): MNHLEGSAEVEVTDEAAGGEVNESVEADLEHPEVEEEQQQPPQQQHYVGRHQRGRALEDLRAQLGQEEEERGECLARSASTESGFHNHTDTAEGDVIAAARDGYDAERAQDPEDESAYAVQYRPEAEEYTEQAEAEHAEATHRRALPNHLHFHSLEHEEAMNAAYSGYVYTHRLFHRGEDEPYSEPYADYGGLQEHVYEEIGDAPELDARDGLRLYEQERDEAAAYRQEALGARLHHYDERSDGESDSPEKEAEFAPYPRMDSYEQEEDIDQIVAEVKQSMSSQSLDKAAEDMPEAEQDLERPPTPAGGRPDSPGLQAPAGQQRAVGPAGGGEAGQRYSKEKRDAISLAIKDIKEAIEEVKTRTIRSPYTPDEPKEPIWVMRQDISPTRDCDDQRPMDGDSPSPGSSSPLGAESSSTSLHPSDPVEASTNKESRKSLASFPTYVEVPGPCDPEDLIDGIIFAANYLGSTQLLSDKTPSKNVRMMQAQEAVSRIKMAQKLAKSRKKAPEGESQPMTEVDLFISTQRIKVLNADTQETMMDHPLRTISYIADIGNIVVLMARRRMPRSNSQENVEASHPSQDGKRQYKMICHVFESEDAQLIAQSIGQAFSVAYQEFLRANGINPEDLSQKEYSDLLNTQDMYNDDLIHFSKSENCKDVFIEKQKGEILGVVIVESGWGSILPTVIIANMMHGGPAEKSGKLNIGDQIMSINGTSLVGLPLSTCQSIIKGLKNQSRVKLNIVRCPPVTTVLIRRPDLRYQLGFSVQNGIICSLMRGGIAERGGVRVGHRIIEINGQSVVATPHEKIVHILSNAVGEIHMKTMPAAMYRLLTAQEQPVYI
Chain of Female germline-specific tumor suppressor gld-1 (Q17339 whole entry, the tested form may be a part): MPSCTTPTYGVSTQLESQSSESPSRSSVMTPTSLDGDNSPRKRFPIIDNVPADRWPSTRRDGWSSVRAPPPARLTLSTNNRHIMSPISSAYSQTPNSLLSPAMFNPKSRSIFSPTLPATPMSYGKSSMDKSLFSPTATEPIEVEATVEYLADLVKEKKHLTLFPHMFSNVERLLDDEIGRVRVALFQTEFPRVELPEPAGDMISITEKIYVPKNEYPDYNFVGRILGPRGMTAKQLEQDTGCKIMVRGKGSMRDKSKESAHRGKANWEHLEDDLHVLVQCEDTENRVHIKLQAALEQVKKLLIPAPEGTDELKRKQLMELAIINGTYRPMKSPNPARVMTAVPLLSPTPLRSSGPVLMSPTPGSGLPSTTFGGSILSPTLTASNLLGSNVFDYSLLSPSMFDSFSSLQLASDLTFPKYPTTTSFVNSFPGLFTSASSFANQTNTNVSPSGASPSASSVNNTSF
Chain of Beta-galactosidase (Q8VNN2 whole entry): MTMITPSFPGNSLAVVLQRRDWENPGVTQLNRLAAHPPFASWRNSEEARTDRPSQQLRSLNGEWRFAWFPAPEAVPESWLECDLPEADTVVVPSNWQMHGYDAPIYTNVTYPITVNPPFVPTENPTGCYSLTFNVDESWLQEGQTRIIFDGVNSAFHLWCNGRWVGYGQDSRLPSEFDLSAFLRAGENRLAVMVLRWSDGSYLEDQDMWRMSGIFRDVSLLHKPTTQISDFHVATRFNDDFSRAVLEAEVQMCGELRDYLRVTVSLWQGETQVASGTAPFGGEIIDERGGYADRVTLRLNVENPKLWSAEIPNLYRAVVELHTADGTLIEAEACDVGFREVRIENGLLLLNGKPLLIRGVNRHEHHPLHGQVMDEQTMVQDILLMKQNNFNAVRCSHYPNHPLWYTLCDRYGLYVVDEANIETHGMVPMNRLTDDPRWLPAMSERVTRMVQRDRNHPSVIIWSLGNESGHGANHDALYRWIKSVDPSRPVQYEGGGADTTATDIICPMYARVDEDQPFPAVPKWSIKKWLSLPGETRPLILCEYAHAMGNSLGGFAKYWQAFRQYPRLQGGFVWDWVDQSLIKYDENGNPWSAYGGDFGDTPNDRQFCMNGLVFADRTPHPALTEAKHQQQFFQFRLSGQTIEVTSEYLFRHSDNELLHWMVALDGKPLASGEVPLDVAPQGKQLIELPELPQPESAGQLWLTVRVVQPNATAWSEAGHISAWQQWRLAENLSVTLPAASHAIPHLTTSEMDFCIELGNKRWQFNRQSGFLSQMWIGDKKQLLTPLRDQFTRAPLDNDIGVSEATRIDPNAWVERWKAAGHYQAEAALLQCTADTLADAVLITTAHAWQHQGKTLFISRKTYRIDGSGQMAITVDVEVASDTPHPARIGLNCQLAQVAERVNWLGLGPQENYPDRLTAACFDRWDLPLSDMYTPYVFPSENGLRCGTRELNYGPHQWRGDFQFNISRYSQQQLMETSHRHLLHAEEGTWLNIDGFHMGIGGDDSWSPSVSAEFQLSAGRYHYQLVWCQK
Chain of Protein Rev (P04618 whole entry): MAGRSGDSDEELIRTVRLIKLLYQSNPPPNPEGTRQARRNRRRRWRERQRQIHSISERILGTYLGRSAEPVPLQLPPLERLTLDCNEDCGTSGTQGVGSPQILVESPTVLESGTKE
Chain of Bcl-2-like protein 1 (Q07817 whole entry): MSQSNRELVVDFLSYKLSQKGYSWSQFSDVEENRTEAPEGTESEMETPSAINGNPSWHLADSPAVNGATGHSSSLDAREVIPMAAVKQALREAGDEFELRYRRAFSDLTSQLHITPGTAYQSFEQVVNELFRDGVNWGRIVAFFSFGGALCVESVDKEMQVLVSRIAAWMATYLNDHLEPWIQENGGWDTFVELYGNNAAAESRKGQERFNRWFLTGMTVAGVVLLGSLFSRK

Cc1cc(NC(=O)c2cc(Cl)ccc2Cl)no1
AC50 [1]: > 100 µM (inactive)

CCN1C/C(=C/c2cccs2)c2nc3ccccc3c(C(=O)O)c2C1
EC50 [2]: 31.9 µM (active)
IC50 (Protein Rev): 17 µM (not active)
IC50 [3]: 9.41 µM (active)
EC50 [4]: 39.2 µM (active)

CN1CCN(c2ccccc2NC(=O)c2ccc(-c3cccc(Cl)c3)o2)CC1
IC50 [5]: > 66.6 µM (inactive)
IC50 (Beta-galactosidase): > 66.6 µM (inactive)

O=C(CN1C(=O)/C(=C/c2ccco2)SC1=S)Nc1ccc(O)c(C(=O)O)c1
IC50 (Bcl-2-like protein 1): > 109 µM (not active)
IC50 [6]: 15.1 µM (active)
IC50 [7]: 18.5 µM (not active)
IC50 [8]: 5.86 µM (active)
IC50 [9]: > 122 µM (inactive)
AC50 [10]: > 20 µM (inactive)
AC50 (HeLa): > 350 µM (inactive)
AC50 (ORF 73): 98.5 µM (active)
IC50 [11]: > 122 µM (inactive)
IC50 (Large T antigen): 54.3 µM (active)
IC50 [12]: 13.2 µM (active)
IC50 (Genome polyprotein): > 100 µM (active)

COc1ccc(N2C(=O)/C(=C\NNc3nc(C)cc(C)n3)c3ccccc3C2=O)cc1OC
EC50 [13]: 11.8 µM (active)
EC50 [14]: 9.51 µM (active)
EC50 [15]: 11.8 µM (active)
IC50 [5]: 0.594 µM (active)
IC50 (Beta-galactosidase): > 66.6 µM (inactive)

CCCCc1ccc(/C=C2\C(=O)c3ccccc3C(O)=C2C(=O)OCC)cc1
IC50 [16]: 16.2 µM (active)
IC50 [17]: 17.8 µM (active)
IC50 [18]: 5.63 µM (active)

CCCCN(C(=O)c1ccccc1Cl)c1nc(-c2ccc(OC)cc2)cs1
CC50 (Vero [19]): > 100 µM (active)
IC50 [20]: > 66.6 µM (active)
CC50 (Vero [21]): > 40 µM (active)

COc1ccc(NC(=O)c2ccc(-c3ccc(C(C)=O)cc3)o2)cn1
IC50 (Protein Rev): 16.4 µM (not active)
IC50 [3]: 9.1 µM (active)

CCCCCC1CC(COc2ccccc2)OC1=O (stereo not drawn)
AC50 [1]: 6.27 µM (active)
